# In PMC6345774, “Kinetic and thermodynamic effects of phosphorylation on p53 binding to MDM2” (Scientific Reports, 2019):
# B1: Ac-EeFdDLWKLLPEN-NH2 (P53-E18-D20) (peptide)
# peptide: Ac-EEFDDLWKLLPEN-NH2
# notes: also called double phosphomimetic mutant
# Columns and labels:
# [1] = Far-UV CD of isolated peptides in aqueous solution (helicity); type: physicochemical; conditions: 5 °C, 50 mM phosphate pH 6.8; for molar ellipticity at 222 nm, [Θ]222: far-UV CD; for % Helix in water ([Θ]222): from molar ellipticity at 222 nm assuming 100% helix = −31500 deg cm^2 dmol^−1
# Protocol: Spectra were acquired on a Jasco J815 spectropolarimeter (Jasco, Japan) interfaced with a Peltier unit. The instrument was periodically calibrated with (+) 10-camphorsulphonic acid. Far-UV measurements (in aqueous or TFE solutions) were performed in 0.1-cm-pathlength quartz cells (Hellma), with a response time of 2 s, a band width of 1 nm, data were collected every 0.2 nm, and a scan velocity of 50 nm/min (or 20 nm/min). […] In all peptides, two concentrations (10 μM and 70 μM) in aqueous solutions (50 mM sodium phosphate buffer, pH 6.8 […]) were used to determine whether either the shapes or the intensities of the spectra were concentration-dependent. […] In all cases (aqueous solution or TFE titrations), the corresponding blank solutions (containing only buffer, or buffer and the corresponding amount of TFE) were subtracted from the spectra.
# (§1) For the TFE titrations, a peptide concentration of 40 μM was used. The samples were prepared the day before and left overnight at 5 °C to reach equilibrium. The experiments in aqueous solution were acquired at 5 °C, in 50 mM sodium phosphate buffer, pH 6.8. Raw ellipticity was converted to molar ellipiticity, [Θ], from which the percentage of helical populations was determined. Co-solvent concentrations were indicated in percentage of volume. […] Fitting of the titration curves, obtained by observation of the molar ellipticity at 222 nm as the TFE concentration was increased, was carried out with Kaleidagraph (Synergy software).
# [2] = TFE titrations monitored by CD (helical population); type: physicochemical; conditions: 5 °C, 50 mM phosphate pH 6.8, peptide 40 μM; for [TFE]1/2 (midpoint of TFE titration) / m (m-value of TFE titration): CD at 222 nm, two-state fit, ± fitting error; for % Helix in water (from ΔG in TFE titrations): from ΔG = [TFE]1/2 × m, for 1% values the error was 10%
# Protocol: Unlike the above programs, which make assumptions about how the ellipticity signal relates to secondary structure content, a TFE titration allows the determination of helical content derived from the free-energy change for the equilibrium between folded (in TFE) and unfolded peptide, without any such assumptions.
# as §1
# [3] = target: T1, human MDM2 (residues 2–125) (Homo sapiens, UniProt Q00987); test: Equilibrium fluorescence titration of p53-peptides and MDM2; type: binding; conditions: fluorescence at 315 nm, excitation 280 nm; MDM2 4 μM, peptide 0–10 μM; 15 °C, pH 8.0 Tris-HCl, 250 mM NaCl, 0.5 mM TCEP; overnight equilibration; titration repeated twice; read-out: Kd from fluorescence titrations
# T1 construct: human MDM2 (residues 2–125); made in house; host or cells: E. coli BL21 (DE3)
# T1 sequence (Q00987 2-125): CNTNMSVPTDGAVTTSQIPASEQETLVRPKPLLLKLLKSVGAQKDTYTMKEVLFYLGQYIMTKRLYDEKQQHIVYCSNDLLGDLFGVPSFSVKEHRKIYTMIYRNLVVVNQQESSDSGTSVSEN
# Protocol: (§2) Expression and purification of human MDM2 (residues 2–125) was carried out as described[23] in BL21 (DE3) cells. […] Protein concentration was determined from the absorbance of its seven Tyr residues.
# [4] = target: T1, human MDM2 (residues 2–125); test: Stopped-flow fluorescence kinetics of p53-peptide binding to MDM2; conditions: stopped-flow Trp fluorescence, 15 °C, 50 mM Tris-HCl pH 8.0, 250 mM NaCl, 0.5 mM TCEP, peptide 0.125 μM, ± fitting error; for kon: MDM2 1–3 μM, pseudo-first order, slope, read-out: kon 10^6; for koff: y-axis intercept of pseudo-first-order plot
# Protocol: as §2
# The kinetics of the MDM2/p53-peptide interaction was measured at 15 °C using an Applied Photophysics stopped-flow fluorimeter in the same buffer as that used in the equilibrium fluorescence experiments. The experimental procedure has been described previously. Association kinetics was measured under pseudo-first order conditions, by keeping the MDM2 concentration in excess of that of the peptide. […] Excitation wavelength was 280 nm with a cut-off filter of 315 nm on the emission side. The slit widths were 10 nm for excitation and emission.
# At each MDM2 concentration a minimum of six traces were acquired; and the fitting in all cases for all peptides was carried out with the averaging of at least four traces. The averaged trace was always fitted to a single exponential function, which yielded, kobs. Fitting to a single exponential curve was carried out by using Kaleidagraph (Synergy Software); reported errors in kobs are from the exponential fitting. The dissociation (koff) and association (kon) rate constants were obtained from the straight line: kobs=kon×[MDM2]+koff.
# Errors in both rates were from the linear fitting; the errors were always larger for koff due to the extrapolation to the y-axis intercept.
# [5] = target: T1, human MDM2 (residues 2–125); test: Isothermal titration calorimetry of p53-peptide binding to MDM2; conditions: ITC, 15 °C, 50 mM Tris-HCl pH 8.0, 250 mM NaCl, 0.5 mM TCEP; for ΔH of binding: repeated twice
# Protocol: Protein concentration was determined from the absorbance of its seven Tyr residues.
# Peptide binding to MDM2 was measured by using an Auto-iTC200 (Malvern Instruments, Malvern UK), as described[24],[37]. Data acquisition was carried out with a reference power of 10 µcal/s, initial delay of 60 s, spacing between injections of 150 s. In a typical ITC experiment, the p53 peptide was loaded into a 40 μl syringe and the protein was placed into the sample cell. The sequence of injections consisted of one 0.5 μl injection followed by 19 injections of 2 μl each. Control experiments loading peptide into buffer solution were also carried out for each peptide. Experiments were performed with freshly prepared protein solutions, at 15 °C in the same buffer used in fluorescence experiments. ITC experiments were performed at 15 °C rather than 25 °C to avoid aggregation of MDM2.
# Each peak was integrated using NITPIC software. The areas of the peaks are related to the heat exchanged upon binding and/or dilution. This heat was corrected of the heat of dilution (i.e., the average heat of the injections after the equilibrium has reached the saturation). Titration with each peptide was repeated twice.
# [6] = target: T2, human MDM2 (residues 2–125) (human, UniProt Q00987 2-125); test: other fluorescence titration; peptide 0–10 μM added to 4 μM MDM2; fluorescence at 315 nm after excitation at 280 nm; 15 °C; 50 mM Tris-HCl pH 8.0, 250 mM NaCl, 0.5 mM TCEP; samples left overnight at 5 °C; conditions: both partners purified
# T2 construct: MDM2 (murine double minute 2), human, N-terminal domain, residues 2-125; no tag is named; also called N-terminal domain of MDM2
# T2 sequence (Q00987 2-125): as above
# [7] = target: T2, human MDM2 (residues 2–125); test: ITC; p53 peptide in the syringe titrated into MDM2 in the cell; Auto-iTC200; 15 °C; 50 mM Tris-HCl pH 8.0, 250 mM NaCl, 0.5 mM TCEP; conditions: both partners purified
# [8] = target: T2, human MDM2 (residues 2–125); test: stopped-flow fluorescence; pseudo-first order, peptide 0.125 μM final, MDM2 in excess (typically 1 μM to 3 μM); Trp23 fluorescence, excitation 280 nm, 315 nm cut-off; 15 °C; 50 mM Tris-HCl pH 8.0, 250 mM NaCl, 0.5 mM TCEP; Kd as koff/kon assuming a two-state reaction; conditions: both partners purified
Molecule,"molar ellipticity at 222 nm, [Θ]222 [1] [deg cm^2 dmol^−1]",% Helix in water ([Θ]222) [1] [%],[TFE]1/2 (midpoint of TFE titration) [2],m (m-value of TFE titration) [2],% Helix in water (from ΔG in TFE titrations) [2] [%],Kd [3] [µM],kon [4] [M⁻¹ s⁻¹],koff [4] [s⁻¹],TΔS of binding [5] [kcal/mol],ΔH of binding ([5]; peptide titrated into MDM2) [kcal/mol],"Kd ([5]; peptide titrated into MDM2, read-out: Log KA (converted)) [µM]",Kd [6] [µM],Kd [7] [µM],Log KA [7],dH [7] [kcal/mol],Kd [8] [µM]
CC(=O)N[C@@H](CCC(=O)O)C(=O)N[C@H](C(=O)N[C@@H](Cc1ccccc1)C(=O)N[C@@H](CCC(=O)O)C(=O)N[C@@H](CC(=O)O)C(=O)N[C@@H](CC(C)C)C(=O)N[C@@H](Cc1c[nH]c2ccccc12)C(=O)N[C@@H](CCCCN)C(=O)N[C@@H](CC(C)C)C(=O)N[C@@H](CC(C)C)C(=O)N1CCC[C@H]1C(=O)N[C@@H](CCC(=O)O)C(=O)N[C@@H](CC(N)=O)C(N)=O)[C@@H](C)O [P53-E20],−2911,9.2,25 ± 2 % (vol:vol),231 ± 141 cal mol^−1(%)^−1,1,0.7 ± 0.1,9e+06 ± 2e+06,8 ± 5,–,–,–,–,–,–,–,–
Ac-EEFDDLWKLLPEN-NH2 [P53-E18-D20],−2100,6.6,15 ± 1 % (vol:vol),135 ± 18 cal mol^−1(%)^−1,3 ± 1,–,4e+06 ± 2e+06,18 ± 6,-2.64,-8.80,–,–,–,–,–,–
Ac-EEFEDLWKLLPEN-NH2 [P53-E18-E20],−2757,8.7,24.5 ± 0.9 % (vol:vol),420 ± 390 cal mol^−1(%)^−1,1,–,2.7e+06 ± 900000,17 ± 2,-2.16,-9.12,5.01,–,–,–,–,–
Ac-ETFDDLWKLLPEN-NH2 [Ac-ETFdDLWKLLPEN-NH2 (P53-D20)],–,–,–,–,–,–,–,–,–,–,–,1.5 ± 0.4,5.7,5.24,-10.2,–
Ac-EEFEDLWKLLPEN-NH2 [Ac-EeFeDLWKLLPEN-NH2 (P53-E18-E20)],–,–,–,–,–,–,–,–,–,–,–,–,5,5.3,-9.12,6 ± 2
Ac-EEFSDLWKLLPEN-NH2 [Ac-EeFSDLWKLLPEN-NH2 (P53-E18)],–,–,–,–,–,–,–,–,–,–,–,2.3 ± 0.6,7.1,5.15,-7.02,4.2 ± 0.9
B1,–,–,–,–,–,–,–,–,–,–,–,8.3 ± 4.9,20.4,4.69,-8.8,4 ± 3
Ac-ETFEDLWKLLPEN-NH2 [Ac-ETFeDLWKLLPEN-NH2 (P53-E20)],–,–,–,–,–,–,–,–,–,–,–,–,–,–,–,0.9 ± 0.6
